# Paper PMC7036018 (ACS chemical biology, 2020)
# Columns and labels:
# P. aeruginosa [1] = experiment: Mass spectrometry of compound levels in cell-free culture fluid and cell lysate; assay type: cell-based, Pseudomonas aeruginosa; conditions: positive control
# P. aeruginosa [2] = experiment: PqsE-dependent pyocyanin production; assay type: cell-based, Pseudomonas aeruginosa; conditions: 100 μM, overnight at 37°C, OD695
# P. aeruginosa [3] = conditions: cited from earlier work
Compound,concentration in cell lysate over time (P. aeruginosa [1]),concentration in cell-free culture fluid over time (P. aeruginosa [1]),effect on pyocyanin production (P. aeruginosa [2]),effect on in vivo pyocyanin production levels (P. aeruginosa [3])
meta-bromo-thiolactone [mBTL],increased,progressively decreased,known inhibitor of pyocyanin production,–
"O=C(O)c1ccccc1-c1cccnc1 [Compound C1, 2-(pyridin-3’-yl) benzoic acid]",–,–,–,does not affect in vivo pyocyanin production levels
